For experiment [1], the target named is GTPase KRas (Homo sapiens, UniProt P01116, G12V). Briefly: Inhibition of KRAS G12V mutant (unknown origin) preincubated for 4 hrs followed by SOS1 addition and measured after 3 hrs by fluorescence based analysis.
Experiment [2] has as its target GTPase KRas (Homo sapiens, UniProt P01116, G12D). The experiment is described as follows: Inhibition of KRAS G12D mutant (unknown origin) preincubated for 4 hrs followed by SOS1 addition and measured after 2 hrs by fluorescence based analysis.

The results in this text go back to ChEMBL document CHEMBL5247679, “Novel Quinoline Compounds as KRAS Inhibitors for Treating Cancer” (ACS Med Chem Lett, 2023).

Structures are written as SMILES. Bounds are passed on as bounds.

Usually IC50 stands for the concentration that gives 50% inhibition. The low end stands for greater potency, the high end for weaker potency.

GTPase KRas (Homo sapiens, UniProt P01116, G12V), sequence (P01116 whole entry G12V): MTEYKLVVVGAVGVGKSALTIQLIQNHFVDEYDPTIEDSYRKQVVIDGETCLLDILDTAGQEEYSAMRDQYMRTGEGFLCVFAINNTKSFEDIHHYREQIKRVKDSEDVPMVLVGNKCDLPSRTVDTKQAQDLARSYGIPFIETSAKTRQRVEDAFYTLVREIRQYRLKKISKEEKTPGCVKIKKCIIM
GTPase KRas (Homo sapiens, UniProt P01116, G12D), sequence (P01116 whole entry G12D): as the sequence (P01116 whole entry G12V) above, with V12D counted along it

For the compound `Cc1nc2c(F)c(-c3cccc(Cl)c3Cl)c(CCC#N)cc2c2c1cc([C@@H](C)NS(=O)(=O)C1CC1)n2[C@H]1[C@H]2CN[C@@H]1C2`, the IC50 against GTPase KRas [1] and on GTPase KRas [2] was ≤ 100 nM each time.

Turning to `C[C@H](Oc1nc2c(F)c(-c3csc4ccccc34)c(CCC#N)cc2c2c1cc(CN1CCCC1=O)n2[C@H]1[C@H]2CN[C@@H]1C2)[C@@H]1CCCN1C`, the IC50 against GTPase KRas [1] and against GTPase KRas [2] was ≤ 100 nM in each case.

As for `Cc1nc2c(F)c(-c3cccc(Cl)c3Cl)c(CCC#N)cc2c2c1cc([C@@H](C)NC(=O)c1cscn1)n2[C@H]1[C@H]2CN[C@@H]1C2`, the IC50 against GTPase KRas [1] and against GTPase KRas [2] was ≤ 100 nM throughout.

For the compound `CN(C)C1(C)CN(c2nc3c(F)c(-c4cccc5ccc(F)cc45)c(CCC#N)cc3c3c2cc(CN2CCOCC2=O)n3[C@@H]2[C@@H]3CN[C@H]2C3)C1`, the IC50 against GTPase KRas [1] and against GTPase KRas [2] was ≤ 100 nM each time.

Regarding `Cc1nc2c(F)c(-c3cccc(Cl)c3Cl)c(CCC#N)cc2c2c1cc([C@@H](C)NC(=O)c1ccncn1)n2[C@H]1[C@H]2CN[C@@H]1C2`, the IC50 against GTPase KRas [1] and at GTPase KRas [2] was ≤ 100 nM in each case.

As for `Cc1cc2c(-n3cncn3)nc3c(F)c(-c4cc(O)cc5ccc(Cl)cc45)c(CCC#N)cc3c2n1[C@H]1[C@H]2CN[C@@H]1C2`, the IC50 on GTPase KRas [1] and against GTPase KRas [2] was ≤ 100 nM throughout.
